# Assays:
# Adenosine receptor A2a = Adenosine receptor A2a (Homo sapiens, UniProt P29274)
# [1] = molecular target: T1, Alpha-2A adrenergic receptor (Homo sapiens, UniProt P08913); assay type: functional, cell-based
# T1 sequence (P08913 whole entry): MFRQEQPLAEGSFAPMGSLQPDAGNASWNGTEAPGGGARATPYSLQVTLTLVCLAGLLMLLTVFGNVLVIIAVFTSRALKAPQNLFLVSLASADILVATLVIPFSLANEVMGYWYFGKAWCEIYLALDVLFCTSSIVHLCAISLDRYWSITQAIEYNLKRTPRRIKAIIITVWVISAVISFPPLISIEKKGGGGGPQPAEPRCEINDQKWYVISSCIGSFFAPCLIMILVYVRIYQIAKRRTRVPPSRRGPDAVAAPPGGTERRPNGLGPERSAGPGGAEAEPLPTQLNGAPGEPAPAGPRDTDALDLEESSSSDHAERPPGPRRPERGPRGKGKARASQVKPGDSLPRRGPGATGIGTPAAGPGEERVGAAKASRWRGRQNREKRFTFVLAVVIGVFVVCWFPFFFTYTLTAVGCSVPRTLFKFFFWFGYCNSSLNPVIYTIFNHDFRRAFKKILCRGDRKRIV
# Vasopressin V1a receptor = Vasopressin V1a receptor (Homo sapiens, UniProt P37288)
# [2] = molecular target: T2, Cholecystokinin receptor type A (Homo sapiens, UniProt P32238)
# T2 sequence (P32238 whole entry): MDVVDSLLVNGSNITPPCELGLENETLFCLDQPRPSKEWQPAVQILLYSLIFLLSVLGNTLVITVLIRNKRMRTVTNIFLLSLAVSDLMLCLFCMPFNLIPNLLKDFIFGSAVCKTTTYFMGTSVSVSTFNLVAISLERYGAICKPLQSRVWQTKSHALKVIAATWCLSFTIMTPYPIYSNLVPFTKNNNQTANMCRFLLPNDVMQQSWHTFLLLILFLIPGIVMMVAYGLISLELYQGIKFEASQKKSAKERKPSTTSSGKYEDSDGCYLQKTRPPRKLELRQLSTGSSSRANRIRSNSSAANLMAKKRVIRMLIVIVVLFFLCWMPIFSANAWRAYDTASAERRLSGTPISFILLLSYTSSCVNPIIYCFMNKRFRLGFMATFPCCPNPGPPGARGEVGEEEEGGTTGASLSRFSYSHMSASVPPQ
# [3] = molecular target: Neuronal acetylcholine receptor subunit alpha-4 (Homo sapiens, UniProt P43681)
# D(1A) dopamine receptor = D(1A) dopamine receptor (Homo sapiens, UniProt P21728); assay type: functional, cell-based
# [4] = molecular target: Gamma-aminobutyric acid receptor subunit alpha-1 (Rattus norvegicus, UniProt P62813); assay type: functional
# [5] = molecular target: Growth hormone secretagogue receptor type 1 (Homo sapiens, UniProt Q92847)
# [6] = molecular target: 5-hydroxytryptamine receptor 2B (Homo sapiens, UniProt P41595); assay type: functional, cell-based
# Melanocortin receptor 3 = Melanocortin receptor 3 (Homo sapiens, UniProt P41968)
# Motilin receptor = Motilin receptor (Homo sapiens, UniProt O43193)
# [7] = molecular target: Delta-type opioid receptor (Homo sapiens, UniProt P41143)
# [8] = molecular target: 3',5'-cyclic-AMP phosphodiesterase 4D (Homo sapiens, UniProt Q08499); assay type: functional
# [9] = molecular target: T3, Prostaglandin G/H synthase 1 (Rattus norvegicus, UniProt Q63921); assay type: functional
# T3 sequence (Q63921 whole entry): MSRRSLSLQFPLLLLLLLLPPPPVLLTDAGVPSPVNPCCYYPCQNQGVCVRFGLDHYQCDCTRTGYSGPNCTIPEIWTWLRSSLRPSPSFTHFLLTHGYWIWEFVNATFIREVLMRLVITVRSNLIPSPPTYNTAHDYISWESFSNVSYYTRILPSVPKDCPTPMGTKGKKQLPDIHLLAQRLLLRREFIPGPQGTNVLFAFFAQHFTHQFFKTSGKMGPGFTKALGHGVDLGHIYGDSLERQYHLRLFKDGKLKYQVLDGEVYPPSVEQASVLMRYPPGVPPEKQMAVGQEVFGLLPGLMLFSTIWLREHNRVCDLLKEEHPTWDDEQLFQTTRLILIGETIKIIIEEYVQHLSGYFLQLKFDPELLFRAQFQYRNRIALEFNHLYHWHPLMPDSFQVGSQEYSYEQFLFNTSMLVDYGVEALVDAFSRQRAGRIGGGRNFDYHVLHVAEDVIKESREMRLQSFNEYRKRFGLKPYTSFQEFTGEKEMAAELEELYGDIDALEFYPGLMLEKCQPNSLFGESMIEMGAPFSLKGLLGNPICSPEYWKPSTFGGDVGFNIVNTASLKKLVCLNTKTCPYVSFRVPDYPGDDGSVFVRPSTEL
# [10] = molecular target: T4, Equilibrative nucleoside transporter 1 (Homo sapiens, UniProt Q99808)
# T4 sequence (Q99808 whole entry): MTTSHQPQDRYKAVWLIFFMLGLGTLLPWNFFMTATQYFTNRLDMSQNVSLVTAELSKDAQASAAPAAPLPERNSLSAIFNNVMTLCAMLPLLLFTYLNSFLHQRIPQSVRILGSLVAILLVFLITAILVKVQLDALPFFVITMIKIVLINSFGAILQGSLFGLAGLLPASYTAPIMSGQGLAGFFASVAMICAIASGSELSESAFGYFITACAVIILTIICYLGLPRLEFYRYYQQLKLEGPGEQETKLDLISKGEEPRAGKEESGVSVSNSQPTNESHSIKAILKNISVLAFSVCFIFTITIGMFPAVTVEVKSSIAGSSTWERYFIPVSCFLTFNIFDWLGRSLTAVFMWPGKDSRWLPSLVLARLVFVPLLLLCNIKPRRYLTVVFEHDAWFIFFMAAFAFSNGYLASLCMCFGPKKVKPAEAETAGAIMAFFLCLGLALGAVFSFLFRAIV
# [11] = molecular target: Sodium-dependent noradrenaline transporter (Homo sapiens, UniProt P23975)
# [12] = molecular target: cGMP-inhibited 3',5'-cyclic phosphodiesterase 3A (Homo sapiens, UniProt Q14432); assay type: functional
# D(3) dopamine receptor = D(3) dopamine receptor (Homo sapiens, UniProt P35462)
# Note: assay procedure not described here.
# Chain of Growth hormone secretagogue receptor type 1 (Q92847 whole entry): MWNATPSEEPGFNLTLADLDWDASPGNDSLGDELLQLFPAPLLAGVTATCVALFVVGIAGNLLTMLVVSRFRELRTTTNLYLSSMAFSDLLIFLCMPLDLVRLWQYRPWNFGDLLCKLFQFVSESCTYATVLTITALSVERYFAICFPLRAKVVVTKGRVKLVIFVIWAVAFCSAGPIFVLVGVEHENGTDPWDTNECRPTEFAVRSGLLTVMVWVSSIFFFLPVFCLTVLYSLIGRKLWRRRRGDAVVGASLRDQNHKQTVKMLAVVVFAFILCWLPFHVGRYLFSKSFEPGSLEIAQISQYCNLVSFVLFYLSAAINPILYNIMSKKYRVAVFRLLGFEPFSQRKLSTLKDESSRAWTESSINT
# Chain of Vasopressin V1a receptor (P37288 whole entry): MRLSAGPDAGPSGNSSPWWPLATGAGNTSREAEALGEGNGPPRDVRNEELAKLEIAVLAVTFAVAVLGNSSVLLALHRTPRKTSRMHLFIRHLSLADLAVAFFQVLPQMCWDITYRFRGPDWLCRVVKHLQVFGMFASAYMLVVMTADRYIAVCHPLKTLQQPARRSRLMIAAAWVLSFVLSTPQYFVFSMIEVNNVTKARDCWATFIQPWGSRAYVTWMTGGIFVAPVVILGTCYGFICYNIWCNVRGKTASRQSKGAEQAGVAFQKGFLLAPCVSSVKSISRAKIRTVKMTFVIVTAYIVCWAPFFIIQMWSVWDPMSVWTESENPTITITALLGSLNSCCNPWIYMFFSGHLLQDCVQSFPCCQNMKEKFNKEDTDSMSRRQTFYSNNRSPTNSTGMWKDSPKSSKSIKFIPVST
# Chain of Sodium-dependent noradrenaline transporter (P23975 whole entry): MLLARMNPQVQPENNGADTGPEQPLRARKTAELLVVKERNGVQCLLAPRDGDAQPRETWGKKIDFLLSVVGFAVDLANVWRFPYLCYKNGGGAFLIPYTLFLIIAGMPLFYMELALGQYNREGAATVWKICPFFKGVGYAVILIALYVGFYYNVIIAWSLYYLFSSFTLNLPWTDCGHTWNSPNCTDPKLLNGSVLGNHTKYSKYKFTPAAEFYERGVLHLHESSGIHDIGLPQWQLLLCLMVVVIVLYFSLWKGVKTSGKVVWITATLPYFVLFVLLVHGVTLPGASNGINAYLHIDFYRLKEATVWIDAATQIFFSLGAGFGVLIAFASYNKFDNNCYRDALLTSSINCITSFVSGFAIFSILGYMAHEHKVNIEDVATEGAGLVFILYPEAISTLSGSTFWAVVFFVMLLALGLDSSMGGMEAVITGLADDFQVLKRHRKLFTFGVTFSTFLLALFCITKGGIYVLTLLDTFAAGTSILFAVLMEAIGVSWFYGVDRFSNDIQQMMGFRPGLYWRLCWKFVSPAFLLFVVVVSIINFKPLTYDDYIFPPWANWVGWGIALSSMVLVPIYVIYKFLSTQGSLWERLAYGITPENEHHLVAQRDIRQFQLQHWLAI
# Chain of D(3) dopamine receptor (P35462 whole entry): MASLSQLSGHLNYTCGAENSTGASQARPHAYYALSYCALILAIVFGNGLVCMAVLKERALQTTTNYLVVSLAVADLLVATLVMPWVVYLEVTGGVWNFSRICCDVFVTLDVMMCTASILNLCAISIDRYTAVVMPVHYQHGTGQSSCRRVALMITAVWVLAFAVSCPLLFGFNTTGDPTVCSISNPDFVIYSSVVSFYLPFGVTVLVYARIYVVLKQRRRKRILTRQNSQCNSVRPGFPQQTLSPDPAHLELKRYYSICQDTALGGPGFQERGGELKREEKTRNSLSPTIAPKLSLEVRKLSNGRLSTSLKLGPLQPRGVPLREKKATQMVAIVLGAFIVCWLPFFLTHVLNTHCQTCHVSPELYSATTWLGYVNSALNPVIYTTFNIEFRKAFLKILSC
# Chain of Adenosine receptor A2a (P29274 whole entry): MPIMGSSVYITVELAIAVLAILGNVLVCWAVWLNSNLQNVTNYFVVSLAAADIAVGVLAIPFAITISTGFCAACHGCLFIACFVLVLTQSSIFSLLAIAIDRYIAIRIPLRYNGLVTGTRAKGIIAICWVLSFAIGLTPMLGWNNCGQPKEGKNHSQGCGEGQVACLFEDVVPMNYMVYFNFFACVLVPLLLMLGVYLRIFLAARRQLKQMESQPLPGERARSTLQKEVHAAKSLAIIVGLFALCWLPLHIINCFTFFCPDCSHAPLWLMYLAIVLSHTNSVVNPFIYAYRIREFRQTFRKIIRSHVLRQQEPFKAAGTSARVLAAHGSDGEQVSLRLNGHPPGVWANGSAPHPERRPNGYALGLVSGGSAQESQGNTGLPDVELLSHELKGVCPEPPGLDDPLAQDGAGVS
# Chain of Melanocortin receptor 3 (P41968 whole entry): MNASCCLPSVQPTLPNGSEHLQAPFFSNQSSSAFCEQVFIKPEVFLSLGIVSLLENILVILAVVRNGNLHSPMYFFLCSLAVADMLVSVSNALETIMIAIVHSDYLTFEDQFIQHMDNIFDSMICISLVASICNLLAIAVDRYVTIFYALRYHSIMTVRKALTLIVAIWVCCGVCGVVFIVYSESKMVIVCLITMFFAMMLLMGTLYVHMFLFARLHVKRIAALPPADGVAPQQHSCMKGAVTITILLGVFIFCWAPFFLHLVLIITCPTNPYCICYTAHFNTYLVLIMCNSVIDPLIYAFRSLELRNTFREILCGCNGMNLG
# Chain of Motilin receptor (O43193 whole entry): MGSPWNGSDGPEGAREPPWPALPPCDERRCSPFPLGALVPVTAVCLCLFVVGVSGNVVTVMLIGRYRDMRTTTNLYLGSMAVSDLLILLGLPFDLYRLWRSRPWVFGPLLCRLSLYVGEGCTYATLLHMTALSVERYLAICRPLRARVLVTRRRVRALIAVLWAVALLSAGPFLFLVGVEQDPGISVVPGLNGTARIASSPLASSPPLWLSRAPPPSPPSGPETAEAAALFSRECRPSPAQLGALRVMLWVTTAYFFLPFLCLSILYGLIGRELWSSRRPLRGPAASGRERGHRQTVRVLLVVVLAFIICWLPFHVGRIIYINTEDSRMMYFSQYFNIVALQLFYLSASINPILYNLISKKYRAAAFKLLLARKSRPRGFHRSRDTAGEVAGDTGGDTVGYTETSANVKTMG
# Chain of Neuronal acetylcholine receptor subunit alpha-4 (P43681 whole entry): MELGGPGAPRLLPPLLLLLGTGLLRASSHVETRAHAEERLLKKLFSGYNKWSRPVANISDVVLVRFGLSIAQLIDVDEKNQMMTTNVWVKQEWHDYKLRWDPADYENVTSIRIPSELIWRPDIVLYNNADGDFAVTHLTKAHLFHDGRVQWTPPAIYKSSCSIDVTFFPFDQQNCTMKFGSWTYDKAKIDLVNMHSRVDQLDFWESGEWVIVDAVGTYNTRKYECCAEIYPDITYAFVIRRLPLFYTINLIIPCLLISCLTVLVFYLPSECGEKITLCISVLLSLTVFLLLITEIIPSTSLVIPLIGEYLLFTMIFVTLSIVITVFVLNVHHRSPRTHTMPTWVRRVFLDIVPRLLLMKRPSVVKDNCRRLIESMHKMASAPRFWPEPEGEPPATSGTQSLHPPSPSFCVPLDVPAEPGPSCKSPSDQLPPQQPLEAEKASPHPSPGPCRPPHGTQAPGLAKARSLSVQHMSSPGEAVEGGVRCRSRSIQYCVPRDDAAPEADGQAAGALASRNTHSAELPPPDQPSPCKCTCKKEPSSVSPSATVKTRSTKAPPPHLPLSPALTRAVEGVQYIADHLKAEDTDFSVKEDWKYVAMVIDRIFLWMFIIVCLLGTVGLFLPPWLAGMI
# Chain of D(1A) dopamine receptor (P21728 whole entry): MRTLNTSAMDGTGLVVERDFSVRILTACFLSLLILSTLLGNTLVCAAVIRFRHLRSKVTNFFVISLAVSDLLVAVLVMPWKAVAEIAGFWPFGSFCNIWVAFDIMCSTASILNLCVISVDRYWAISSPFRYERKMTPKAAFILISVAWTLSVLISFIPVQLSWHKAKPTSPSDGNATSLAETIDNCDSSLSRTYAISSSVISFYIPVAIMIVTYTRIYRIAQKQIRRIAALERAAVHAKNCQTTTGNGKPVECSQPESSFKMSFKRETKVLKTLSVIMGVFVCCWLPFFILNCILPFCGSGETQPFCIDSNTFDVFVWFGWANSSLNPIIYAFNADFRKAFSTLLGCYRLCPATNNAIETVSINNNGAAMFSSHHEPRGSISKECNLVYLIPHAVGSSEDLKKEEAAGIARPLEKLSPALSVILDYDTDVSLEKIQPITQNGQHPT
# Chain of Gamma-aminobutyric acid receptor subunit alpha-1 (P62813 whole entry): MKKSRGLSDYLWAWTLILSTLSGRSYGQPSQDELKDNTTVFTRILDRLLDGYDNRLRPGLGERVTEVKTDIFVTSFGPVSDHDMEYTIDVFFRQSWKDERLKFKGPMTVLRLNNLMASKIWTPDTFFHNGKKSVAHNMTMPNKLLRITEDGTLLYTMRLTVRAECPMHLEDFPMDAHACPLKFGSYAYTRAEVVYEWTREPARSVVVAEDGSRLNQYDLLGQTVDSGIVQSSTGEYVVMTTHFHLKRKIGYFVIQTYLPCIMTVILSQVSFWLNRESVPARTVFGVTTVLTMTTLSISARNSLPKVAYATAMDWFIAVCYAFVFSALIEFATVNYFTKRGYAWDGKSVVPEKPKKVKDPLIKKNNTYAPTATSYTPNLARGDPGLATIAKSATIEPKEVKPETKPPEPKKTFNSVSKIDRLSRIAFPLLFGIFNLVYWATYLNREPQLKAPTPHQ
# Chain of 5-hydroxytryptamine receptor 2B (P41595 whole entry): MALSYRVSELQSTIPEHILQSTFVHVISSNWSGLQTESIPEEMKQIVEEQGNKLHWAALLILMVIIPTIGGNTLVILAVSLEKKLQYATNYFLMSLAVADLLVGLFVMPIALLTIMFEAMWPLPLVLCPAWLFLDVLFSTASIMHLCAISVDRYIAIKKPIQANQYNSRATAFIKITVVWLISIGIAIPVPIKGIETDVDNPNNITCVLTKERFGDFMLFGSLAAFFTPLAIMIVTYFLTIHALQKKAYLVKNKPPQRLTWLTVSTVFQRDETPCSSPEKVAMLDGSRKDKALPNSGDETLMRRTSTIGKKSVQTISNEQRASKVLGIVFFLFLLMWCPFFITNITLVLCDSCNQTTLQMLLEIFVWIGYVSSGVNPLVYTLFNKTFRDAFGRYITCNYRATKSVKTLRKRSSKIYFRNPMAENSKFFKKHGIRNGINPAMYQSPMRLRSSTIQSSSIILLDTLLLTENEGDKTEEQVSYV
SMILES,AC50 (Adenosine receptor A2a) [µM],AC50 [1] [µM],AC50 (Vasopressin V1a receptor) [µM],AC50 [2] [µM],AC50 [3] [µM],AC50 (D(1A) dopamine receptor) [µM],AC50 [4] [µM],AC50 [5] [µM],AC50 [6] [µM],AC50 (Melanocortin receptor 3) [µM],AC50 (Motilin receptor) [µM],AC50 [7] [µM],AC50 [8] [µM],AC50 [9] [µM],AC50 [10] [µM],AC50 [11] [µM],AC50 [12] [µM],AC50 (D(3) dopamine receptor) [µM]
C=CCc1ccccc1OCC(O)CNC(C)C (stereo not drawn) [ALPRENOLOL],> 30,> 30,> 30,> 30,> 30,> 30,> 30,> 30,> 30,> 30,> 30,> 30,> 30,> 30,> 30,30,> 30,> 30
CNC(=O)c1ccccc1Sc1ccc2c(/C=C/c3ccccn3)n[nH]c2c1 [AXITINIB],> 30,> 30,> 30,> 30,> 30,> 30,> 30,> 30,> 30,> 30,> 30,> 30,> 30,> 30,> 30,> 30,> 30,> 30
Cc1ccc(-c2cc(C(F)(F)F)nn2-c2ccc(S(N)(=O)=O)cc2)cc1 [CELECOXIB],> 10,> 10,> 30,> 10,> 10,> 10,> 10,> 10,> 10,> 10,> 10,> 30,20,–,24.4,15.7,> 30,> 30
CC1=C(C(=O)O)N2C(=O)[C@@H](NC(=O)[C@H](N)c3ccccc3)[C@H]2SC1 [CEPHALEXIN ANHYDROUS],> 30,> 30,> 10,> 30,> 10,–,> 10,> 30,–,> 30,> 10,> 30,> 30,> 30,> 30,> 10,> 30,> 10
C[C@H]1CNCCc2ccc(Cl)cc21 [LORCASERIN],> 30,> 30,> 30,> 30,> 30,> 30,> 30,> 30,–,> 30,> 30,> 30,> 30,> 30,> 30,14,> 30,> 30
CS(=O)(=O)c1ccc(C2=C(c3ccccc3)C(=O)OC2)cc1 [ROFECOXIB],> 30,> 30,> 10,> 30,> 10,> 10,4.7,> 30,> 30,> 30,> 10,> 10,> 30,–,> 30,> 10,> 30,> 10

# — ChEMBL document CHEMBL5291721, “A preclinical secondary pharmacology resource illuminates target-adverse drug reaction associations of marketed drugs” (Nat Commun, 2023)
